Reference: publication PMC12234328, “A naphthalimide derivative exerts potent antiplatelet and antithrombotic activities without a bleeding tendency” (Frontiers in Pharmacology, 2025)

Columns and labels:
[1] = test system: human platelet suspensions stimulated with convulxin; assay: Convulxin-induced platelet aggregation; assay type: cell-based; details: 10–50 μM, convulxin 4 ng/mL
From the text: This study received approval from the Taipei Medical University–Joint Institutional Review Board (TMU-JIRB-No. N202003148) and adhered to the principles of the Declaration of Helsinki. Informed consent was obtained from all volunteers before their participation. Human platelets were washed and prepared according to previously established methods ([Lu et al., 2019]). Whole blood was collected from healthy participants who had not taken any medications, including nonsteroidal anti-inflammatory drugs or aspirin, in the preceding 2 weeks. The blood was drawn into polypropylene tubes containing an acid citrate–dextrose solution (9:1, v/v). After mixing, the samples were centrifuged at 120 g for 10 min. The upper layer of platelet-rich plasma was collected and supplemented with prostaglandin E1 and heparin. Following further centrifugation at 500 g for 10 min, the platelet pellets were washed twice. The platelets were then resuspended in Tyrode’s solution containing 3.5 mg/mL bovine serum albumin (B.S.A.) to create platelet suspensions. The final Ca^2+ concentration of the platelet suspensions (3.6 × 10^8 cells/mL) was 1 mM.
Platelet aggregation was measured using a lumi-aggregometer (Payton, Scarborough, Canada) through the turbidimetric method ([Lu et al., 2019]). […] Subsequently, various agonists were added and platelet aggregation was then recorded for an additional 6 min. […]

recombinant human GPVI = target: T1, recombinant human GPVI (Homo sapiens, UniProt Q9HCN6); assay: Surface plasmon resonance binding assay (OpenSPR); details: his-tagged recombinant GPVI on NTA chip, compound at 0.1 and 1 μM; read-out: KD (equilibrium dissociation constant)
T1 sequence (Q9HCN6 21-267 limits assumed): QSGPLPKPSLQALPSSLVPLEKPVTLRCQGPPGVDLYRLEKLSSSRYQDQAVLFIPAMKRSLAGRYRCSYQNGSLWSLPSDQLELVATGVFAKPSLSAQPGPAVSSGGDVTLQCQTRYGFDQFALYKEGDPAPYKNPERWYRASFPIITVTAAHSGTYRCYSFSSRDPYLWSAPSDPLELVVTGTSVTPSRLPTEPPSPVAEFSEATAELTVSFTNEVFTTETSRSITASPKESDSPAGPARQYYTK
Procedure: Surface plasmon resonance (SPR) analysis was performed using an OpenSPR instrument (Nicoya, Kitchener, Canada). A nitrilotriacetic acid (NTA) sensor chip was installed in the OpenSPR instrument. Running buffer (phosphate-buffered saline) was pumped at the maximum flow rate, and 80% isopropanol was injected to remove any bubbles. Subsequently, 200 μL of a 200 mM imidazole solution was injected to prime the sensor surface. After rinsing the chip with running buffer, 200 μL of a 40 mM NiCl2 solution was used to activate the NTA chip. After 5 min of interaction time, his-tagged recombinant GPVI proteins were bound to the NTA chip by perfusing the GPVI protein solution at a flow rate of 20 μL/min. Solutions of compound 5 or compound 6 (0.1 and 1 μM) were then injected. The equilibrium dissociation constant (KD) was determined using the OpenSPR system (Nicoya).
An SPR binding assay was performed. First, recombinant human GPVI was coated on the NTA sensor chip. Solutions of compound 5 and compound 6 (0.1 and 1 μM) were then perfused on the chip, and the KD was determined using the OpenSPR system (Nicoya Lifesciences).
FIGURE 7 Direct binding of compound 6 on GPVI. […] Equilibrium dissociation constant (KD) were determined using the OpenSPR system. […]

[2] = test system: collagen-triggered ATP release in human platelets; assay: ATP release in human platelet suspensions (luciferase/luciferin); assay type: cell-based; details: 2.5 and 5 μM, collagen 1 μg/mL, n = 4
Procedure: Adenosine triphosphate (ATP) release and calcium mobilization were assessed as previously described ([Shih et al., 2021]). Luciferase–luciferin and Fura-2 AM were used to detect ATP release and calcium mobilization, respectively. The intensity of luminescence (indicating ATP release) and the fluorescence ratio (340 nm/380 nm) for calcium mobilization were measured using a Hitachi Spectrometer F-7000 (Tokyo, Japan) following the manufacturer’s instructions.
FIGURE 8 Effects of compound 6 on ATP release, calcium mobilization, and GPIIb–IIIa activation triggered by collagen in human platelets. Washed platelets (3.6 × 10^8 cells/mL) were treated with compound 6 (C6, 2.5 and 5 μM) or DMSO and then stimulated with collagen (1 μg/mL) to trigger ATP release (A), calcium mobilization (B), and GPIIb–IIIa activation (C) that were detected using luciferase/luciferin, Fura-2 AM, and APC–PAC1 antibodies, respectively. Data (A–C) are presented as means ± SEM (n = 4). **p < 0.01 and ***p < 0.001 compared with the resting group. #p < 0.05, ##p < 0.01, and ###p < 0.001 compared with the DMSO (solvent control) group.

CCCCN1C(=O)c2cccc3c(NCCNC(=O)C45CC6CC(CC(C6)C4)C5)ccc(c23)C1=O [compound 6]
Effect on convulxin-induced platelet aggregation [1]: can inhibit convulxin-induced platelet aggregation
Kd (recombinant human GPVI): 160 nM
Collagen-triggered ATP release [2]: markedly reduced
